This note sets out measurements from article PMC5832243, “The importance of negative determinants as modulators of CK2 targeting. The lesson of Akt2 S131” (PLoS ONE, 2018).

Format in all cases: biochemical
One assay addresses T1, recombinant CK2 α2β2 (Homo sapiens, UniProt P67870+P68400).
T1 construct: made in house
As to the kind of experiment: CK2 kinase assay, phosphorylation of synthetic peptides (33P, phosphocellulose filters). The note with it: for Effect of residue replacement in the Akt2 peptide on phosphorylation by CK2 (in words): 10 min with CK2, % of cpm of Akt1 wt peptide, means of 4 experiments (Fig 2A); for Phosphorylation by CK2: summary class of level of phosphorylation by CK2 (Table 4); for Phosphorylation by CK2, time course (in words): 0-120 min incubation with CK2 (Fig 1A). How it is done: Recombinant CK2α and CK2 α2β2 were expressed, purified and kindly donated by Dr. Stefania Sarno (Padova, Italy) and Andrea Venerando (Padova, Italy).
Phosphorylation of synthetic peptides was performed with recombinant CK2 α2β2 (0.025 μg) incubated at 30°C in a final volume of 20 μl containing 50 mM Tris/HCl (pH 7.5), 100 mM NaCl, 10 mM MgCl2, the indicated concentrations of peptides, and 20 μM [γ^33P-ATP] (5000–10000 cpm/pmol). Assays were stopped by spotting onto phosphocellulose filters. Filters were washed four times in 0.5% orthophosphoric acid before counting.

Assay [1] relates to Recombinant human PLK3-GST. As to the kind of experiment: PLK3 kinase assay on substrate peptides (33P, phosphocellulose filters). The note with it: 1mM peptide, 1.5 μg PLK3, 10 min, 37°C, 20 μM [γ-33P]ATP; range according to the specific radioactivity; no-peptide control 2800-9000 cpm. How it is done:
Recombinant human PLK3-GST (Polo-like kinase3 - Glutathione S-transferase), cloned in PGEX-4T1 vector, was produced in BL21 cells and purified by glutathione-Sepharose affinity chromatography, eluted by an elution buffer composed of 50mM Hepes, pH 8.0 and 20mM reduced glutathione. Purity was assessed by SDS-PAGE and Comassie blue staining.
1.5 μg of purified recombinant-PLK3 were incubated with the substrate peptides for 10 min at 37°C in 20 μl of kinase assay buffer containing 20 mM Tris-HCl pH 7.5, 10 mM MgCl2, 5mM DTT (dithiothreitol), 20 μM [γ-^33P]ATP (2000-6000 cpm/pmol). Assays were stopped by spotting onto phosphocellulose filters. Filters were washed four times in 0.5% orthophosphoric acid before scintillation counting.

For the next assay, the system named is CK2. As to the kind of experiment: Phospho-aminoacid determination after CK2 phosphorylation (acid hydrolysis, high-voltage paper electrophoresis). The note with it: 2 mM peptide, 20 or 120 min with CK2; only faint traces of phospho-threonine (Fig 2C). How it is done: For the identification of the amino acids phosphorylated by CK2 in Akt2 peptide, after phosphorylation samples were hydrolyzed by incubation for 4 h at 110°C in 6 N HCl, then subjected to high-voltage paper electrophoresis at pH 1.9 for 2.5 h, in the presence of nonradioactive phospho-amino acids, as migration reference. Radioactivity was detected by digital autoradiography (Cyclone plus storage phosphor system, PerkinElmer), while migration of standard references was detected by ninhydrin staining.

T1 sequence (P68400 whole entry): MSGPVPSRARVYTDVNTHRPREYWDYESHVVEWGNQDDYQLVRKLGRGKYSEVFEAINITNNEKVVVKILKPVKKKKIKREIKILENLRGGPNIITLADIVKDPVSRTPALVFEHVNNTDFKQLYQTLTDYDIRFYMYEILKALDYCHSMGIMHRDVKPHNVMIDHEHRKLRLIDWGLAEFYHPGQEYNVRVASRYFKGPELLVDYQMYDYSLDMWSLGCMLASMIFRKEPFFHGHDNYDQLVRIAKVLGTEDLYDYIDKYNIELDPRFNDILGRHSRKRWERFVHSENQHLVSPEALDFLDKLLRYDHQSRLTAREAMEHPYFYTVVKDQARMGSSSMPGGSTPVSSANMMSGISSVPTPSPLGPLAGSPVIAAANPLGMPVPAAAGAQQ
T1 sequence (P67870 whole entry partner): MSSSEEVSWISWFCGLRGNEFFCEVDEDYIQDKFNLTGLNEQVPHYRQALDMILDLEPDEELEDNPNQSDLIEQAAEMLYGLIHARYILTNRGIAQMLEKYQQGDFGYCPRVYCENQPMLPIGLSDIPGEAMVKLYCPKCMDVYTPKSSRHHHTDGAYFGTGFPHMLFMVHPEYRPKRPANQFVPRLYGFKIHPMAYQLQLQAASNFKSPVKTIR

“R3GSPSDNSTTEEMEV [Akt2N, Akt2 peptide with S at n-1 replaced by N]”: at recombinant CK2 α2β2, the “Effect of residue replacement in the Akt2 peptide on phosphorylation by CK2 (in words)” value is “no beneficial effect” and the “Phosphorylation by CK2” value was “- (or not (-))”.
With R3GSPSDNSGAEEMEV [Akt1(wt)], at recombinant CK2 α2β2, the “Phosphorylation by CK2, time course (in words)” value is “good substrate” and the “Phosphorylation by CK2” value is reported as “+”.
For R3GSPSDSSTTEEMEV [Akt2(wt)], the “cpm detected in PLK3 assay” value in assay [1] was 50000-150000 cpm. Moreover, the “Phospho-aminoacid accounting for phosphorylation by CK2” value with CK2 is “entirely accounted for by phospho-serine”. In addition, at recombinant CK2 α2β2, the “Phosphorylation by CK2, time course (in words)” value is on record as “negligible extent” and the “Phosphorylation by CK2” value was “- (or not (-))”. Further, on recombinant CK2 α2β2 (from Km and Vmax of Fig 1B), the “drop in phosphorylation efficiency in comparison to the Akt1 peptide” value is listed as around 10 fold.
For the substance “R3GSPSDSSSTEEMEV [Akt2TS, Akt2 peptide with T at n+1 replaced by S]”, the “Phosphorylation by CK2” value on recombinant CK2 α2β2 is on record as “+”.
Still for that read-out and setting: next, “R3GSPSDSSATEEMEV [Akt2TA, Akt2 peptide with T at n+1 replaced by A]”: “+”.
Take “R3GSPSDSSGTEEMEV [Akt2TG, Akt2 peptide with T at n+1 replaced by G]”: at recombinant CK2 α2β2, the “Effect of residue replacement in the Akt2 peptide on phosphorylation by CK2 (in words)” value is “comparable to that of the Akt1 peptide” and the “Phosphorylation by CK2” value is listed as “+”.
For “R3GSPSDSSTAEEMEV [Akt2A, Akt2 peptide with T at n+2 replaced by A]” the same measures were “no beneficial effect” and “- (or not (-))”.
For “R3GSPSDNSTAEEMEV [Akt1GT, Akt1 peptide with G at n+1 replaced by T]”, the “Phosphorylation by CK2” value at recombinant CK2 α2β2 is “- (or not (-))”.
